Measured values from patent US10342806B2, “Hormone treatment for age-related hearing loss-presbycusis” (priority 2014, dated 2019).

Columns and labels:
LC3-I, -II, and LAMP-2 = experiment: Lysosome pathway markers in HT-29 cells, Western blot; assay type: cell-based, human; details: ALD 1 μM, MG-132 20 μM, CQ 50 μM, 9 h
Protocol: FIG. 23(A) is a blot and showing ubiquitination, but not the lysosome pathway, is involved in the regulation of NKCC1 by ALD. To exclude the possibility that depletion of free ubiquitin by the prolonged MG-132 treatment triggered nonspecific inhibition of lysosome degradation of NKCC1 and investigate whether ALD is involved in a lysosome pathway, a parallel experiment with chloroquine (CQ) was performed. Here, the positive marks (+) indicate application of ALD (1 μM), MG132 (20 μM), CQ (50 μM), ALD+CQ, and MG132+CQ for 9 h. An autophagosome marker, autophagy-related gene 8 named as light chain 3 (LC3), and the lysosome-associated membrane protein 2 (LAMP-2) were used was indicators of lysosome pathway activation (phagocytic activity) under treatment with CQ.
Western blot. Cell lysates were prepared in RIPA buffer (Pierce 89901; Thermo Scientific, Waltham, Mass.) with protease inhibitor cocktail (78430; Thermo Scientific). Cell samples were homogenized in buffer, followed by centrifugation at 2,000 rpm for 10 min at 4° C. Supernatants were subjected to Western blot analysis by loading 200 μg of protein per lane, after the protein concentrations were determined by Bradford protein assay. Proteins were fractionated by SDS-PAGE gel electrophoresis and transferred to a PVDF blotting membrane (Whatman, Piscataway, N.J.). The blot was incubated with primary antibodies against β-actin and Na—K-2C1 cotransport protein (Cell Signaling, Danvers Mass.); primary antibodies for p-SGK1, SGK1, pNedd4-2, and Nedd4-2 were utilized (concentration 1:1,000). The secondary antibody was horseradish peroxidaseconjugated goat anti-rabbit IgG (1:2,000; Cell Signaling).
Ubiquitination, but not the lysosome pathway, is involved in NKCC1 induction by ALD. A parallel experiment was performed with chloroquine (CQ), a lysosome inhibitor, to exclude the possibility that prolonged MG-132 treatment depleted free ubiquitin by nonspecific inhibition of lysosome degradation of NKCC1 and to confirm whether or not ALD is involved in a lysosome pathway. […]

NKCC1 ubiquitination = experiment: Immunoprecipitation (autoubiquitination assay) of NKCC1 in HT-29 cells; assay type: cell-based, human; details: MG132 20 μM 2 h, then ALD 1 μM and/or GSK 650394 50 μM for 24 h
Protocol: Immunoprecipitation (autoubiquitination assay) and western blot analysis. An autoubiquitination assay was followed (Garg, et al., Effect of the Na—K-2Cl cotransporter NKCC1 on systemic blood pressure and smooth muscle tone. Am J Physiol Heart Circ Physiol 292: H2100-H2105, 2007). Cell extracts were prepared in a modified radioimmunoprecipitation assay 1 (RIPA) buffer, containing the following (in mM): 50 Tris·HCl at pH 7.4, 150 NaCl, 1 EDTA, and 1 dithiothreitol with 1% Nonidet P-40, 0.1% SDS; in a 1:200-diluted protease inhibitor cocktail (Sigma), containing the following (in mM): 1 PMSF, 10 NEM, and 0.1 iodoacetamide Immunoprecipitations were accomplished using a rabbit polyclonal anti-NKCC1 antibody (Cell Signaling). Antibody was bound to lysate with endogenous NKCC1, and then beads were added. Bound proteins were eluted in 1× SDS sample buffer, fractionated on an SDS-polyacrylamide gel, transferred onto a […] membrane (GE Healthcare, Piscataway, N.J.), and immunoblotted with anti-ubiquitin antibody visualized using enhanced chemiluminescence detection reagents (Pears, Shelton Conn.) according to the manufacturer's instructions.
Immunoblotting with anti-ubiquitin antibody was performed as described above.
ALD decreases the endogenous ubiquitination of NKCC1 and inhibition of SGK1 activation blocks this downregulation. […]

[1] = tested on: Spiral ganglion neuron (SGN); experiment: Spiral ganglion neuron cell density, H&E staining of cochlear sections; assay type: in vivo, mouse; details: upper apical, lower apical, upper basal, lower basal regions; ALD-treated middle-aged mice vs untreated control mice
Protocol: Death was confirmed by terminal phlebotomy/exsanguinations and perfusion.
For immunohistochemistry, mice were sacrificed, and one of the cochleae dissected, fixed in 4% paraformaldehyde in PBS overnight at 4° C., decalcification in 10% EDTA in PBS for a week at 4° C., and incubated in cryoprotection solution overnight at 4° C. The cochleae were embedded into degassed OCT overnight at 4° C., orientated into the cryomold with OCT degassed for 1 hour, then frozen at −80° C. Cryosectioning was performed at 5 μm per section. The cochlear cross sections were stained with hematoxylin and eosin (H&E) and MCR (H-300) (sc-11412, Santa Cruz Bio). The spiral ganglion neurons were counted by Metamorph imaging software (Molecular Devices, Center Valley, Pa. 18034-0610) and data analyzed by GraphPad Prism (GraphPad Software, Inc. La Jolla, Calif.).
Spiral ganglion neuron (SGN) cell density was measured from 4 different topographical area, comparing ALD-treated middle-aged mice to age-matched controls. […] Further, this increase in SGN is correlated with ABR threshold shifts (shown below) in the same mice.

[2] = Tail-cuff plethysmography of blood pressure; assay type: in vivo, mouse; details: 0.0016 mg/day pellet, measured at 2 and 4 months
Protocol: FIG. 27(A) is graph showing the tail-cuff plethysmography of blood pressure for ALD treatments of 60 days and 120 days, compared to middle-age control mice. Diastolic blood pressures were measured for middle-aged (20-21 mon) CBA/CaJ mice and middle-age ALD treated (0.0016 mg/day continuous release through 120 days, one pellet for 60 days and subsequently a second pellet for 60 days) mice, each group, n=5. Pressures were taken at 60 and 120 days and compared to the middle-age control animals. Mean±SD for each group.
FIG. 27(B) is a graph showing the tail-cuff plethysmography of blood pressure for ALD treatments of 60 days and 120 days, compared to middle-age control mice. Systolic blood pressures were measured for middle-aged (20-21 mon) CBA/CaJ mice and middle-age ALD treated (0.0016 mg/day continuous release through 120 days, one pellet for 60 days and subsequently a second pellet for 60 days) mice, each group, n=5. Pressures were taken at 60 and 120 days and compared to the middle-age control animals. Mean±SD for each group.
During treatment, blood pressures were measured for the mice at 2 and 4 months after start of treatment.

CBA mice = details: ALD-treated aging CBA mice (Halonen et al. 2014); cited from earlier work

C[C@]12CCC(=O)C=C1CC[C@@H]1[C@@H]2[C@@H](O)C[C@]2(C=O)[C@@H](C(=O)CO)CC[C@@H]12 [ALD, aldosterone]
lysosome pathway markers LC3II and LAMP-2 expression levels (LC3-I, -II, and LAMP-2): without increasing lysosome pathway markers | endogenous ubiquitinated NKCC1 (NKCC1 ubiquitination): significantly reduced | SGN density [1]: SGN density was higher | diastolic or systolic blood pressure [2]: neither aging nor the hormone treatment appeared to affect either diastolic or systolic blood pressure | auditory temporal processing (prepulse inhibition) (CBA mice): provocative increases in auditory temporal processing
